Active and inactive are the calls of the source. The calls are words filed in the database; no cut-off is given here.
What was measured:
PC-12 [1] = test: Inhibition of D-aspartate biosynthesis in rat PC12 cells assessed as reduction of total D-aspartate content at 10 uM measured at 6 to 16 hrs by O-phthalaldehyde/N-acetyl-L-cysteine derivatization technique-based HPLC analysis relative to vehicle-treated control; assay type: functional, cell-based
PC-12 [2] = test: Inhibition of D-aspartate biosynthesis in rat PC12 cells assessed as reduction of intracellular D-aspartate content at 10 uM measured at 3 to 16 hrs by O-phthalaldehyde/N-acetyl-L-cysteine derivatization technique-based HPLC analysis relative to vehicle-treated control; assay type: functional, cell-based
PC-12 [3] = test: Effect on L-aspartate biosynthesis in rat PC12 cells assessed as effect on intracellular L-aspartate level up to 10 uM after 24 hrs by O-phthalaldehyde/N-acetyl-L-cysteine derivatization technique-based HPLC analysis; assay type: functional, cell-based
PC-12 [4] = test: Effect on L-aspartate biosynthesis in rat PC12 cells assessed as effect on total L-aspartate level up to 10 uM after 24 hrs by O-phthalaldehyde/N-acetyl-L-cysteine derivatization technique-based HPLC analysis; assay type: functional, cell-based
PC-12 [5] = test: Effect on L-aspartate biosynthesis in rat PC12 cells assessed as effect on L-aspartate level in cell culture medium up to 10 uM after 24 hrs by O-phthalaldehyde/N-acetyl-L-cysteine derivatization technique-based HPLC analysis; assay type: functional
PC-12 [6] = test: Inhibition of D-aspartate biosynthesis in rat PC12 cells assessed as reduction of intracellular D-aspartate content at 10 uM measured at 1 hr by O-phthalaldehyde/N-acetyl-L-cysteine derivatization technique-based HPLC analysis relative to vehicle-treated control; assay type: functional, cell-based
PC-12 [7] = test: Inhibition of D-aspartate biosynthesis in rat PC12 cells assessed as reduction of total D-aspartate level after 24 hrs by O-phthalaldehyde/N-acetyl-L-cysteine derivatization technique-based HPLC analysis; assay type: functional, cell-based
PC-12 [8] = test: Inhibition of D-aspartate biosynthesis in rat PC12 cells assessed as reduction of total D-aspartate content at 10 uM measured at 1 to 3 hrs by O-phthalaldehyde/N-acetyl-L-cysteine derivatization technique-based HPLC analysis relative to vehicle-treated control; assay type: functional, cell-based
PC-12 [9] = test: Inhibition of D-aspartate biosynthesis in rat PC12 cells assessed as reduction of D-aspartate level in cell culture medium up to 10 uM after 24 hrs by O-phthalaldehyde/N-acetyl-L-cysteine derivatization technique-based HPLC analysis; assay type: functional
HEK293 = test: Increase in intracellular D-aspartate content in HEK293 cells at 5 ug after 24 hrs by O-phthalaldehyde/N-acetyl-L-cysteine derivatization technique-based HPLC analysis relative to total aspartate (reference value: 7.38 +/- 1.9%); assay type: functional, Homo sapiens
PC-12 [10] = test: Inhibition of D-aspartate biosynthesis in rat PC12 cells assessed as reduction of intracellular D-aspartate level up to 10 uM after 24 hrs by O-phthalaldehyde/N-acetyl-L-cysteine derivatization technique-based HPLC analysis; assay type: functional, cell-based
PC-12 [11] = test: Effect on L-aspartate biosynthesis in rat PC12 cells assessed as effect on total L-aspartate content up to 0.5 uM after 24 hrs by O-phthalaldehyde/N-acetyl-L-cysteine derivatization technique-based HPLC analysis; assay type: functional, cell-based
PC-12 [12] = test: Effect on L-aspartate biosynthesis in rat PC12 cells assessed as effect on intracellular L-aspartate content up to 0.5 uM after 24 hrs by O-phthalaldehyde/N-acetyl-L-cysteine derivatization technique-based HPLC analysis; assay type: functional, cell-based
PC-12 [13] = test: Inhibition of D-aspartate biosynthesis in rat PC12 cells assessed as reduction of total D-aspartate level up to 0.5 uM after 24 hrs by O-phthalaldehyde/N-acetyl-L-cysteine derivatization technique-based HPLC analysis; assay type: functional, cell-based
PC-12 [14] = test: Inhibition of D-aspartate biosynthesis in rat PC12 cells assessed as reduction of intracellular D-aspartate content up to 0.5 uM after 24 hrs by O-phthalaldehyde/N-acetyl-L-cysteine derivatization technique-based HPLC analysis; assay type: functional, cell-based
PC-12 [15] = test: Effect on L-aspartate biosynthesis in rat PC12 cells assessed as effect on total L-aspartate level up to 0.2 uM after 24 hrs by O-phthalaldehyde/N-acetyl-L-cysteine derivatization technique-based HPLC analysis; assay type: functional, cell-based
PC-12 [16] = test: Inhibition of D-aspartate biosynthesis in rat PC12 cells assessed as reduction of intracellular D-aspartate level after 24 hrs by O-phthalaldehyde/N-acetyl-L-cysteine derivatization technique-based HPLC analysis; assay type: functional, cell-based
PC-12 [17] = test: Effect on L-aspartate biosynthesis in rat PC12 cells assessed as effect on L-aspartate level in cell culture medium up to 0.2 uM after 24 hrs by O-phthalaldehyde/N-acetyl-L-cysteine derivatization technique-based HPLC analysis; assay type: functional
PC-12 [18] = test: Inhibition of D-aspartate biosynthesis in rat PC12 cells assessed as reduction of D-aspartate level in cell culture medium after 24 hrs by O-phthalaldehyde/N-acetyl-L-cysteine derivatization technique-based HPLC analysis; assay type: functional
PC-12 [19] = test: Effect on L-aspartate biosynthesis in rat PC12 cells assessed as effect on intracellular L-aspartate level up to 0.2 uM after 24 hrs by O-phthalaldehyde/N-acetyl-L-cysteine derivatization technique-based HPLC analysis; assay type: functional, cell-based
PC-12 [20] = test: Inhibition of D-aspartate biosynthesis in rat PC12 cells assessed as reduction of total D-aspartate content at 0.2 uM measured at 16 hrs by O-phthalaldehyde/N-acetyl-L-cysteine derivatization technique-based HPLC analysis relative to vehicle-treated control; assay type: functional, cell-based
PC-12 [21] = test: Inhibition of D-aspartate biosynthesis in rat PC12 cells assessed as reduction of D-aspartate content in cell culture medium at 0.2 uM measured at 6 to 12 hrs by O-phthalaldehyde/N-acetyl-L-cysteine derivatization technique-based HPLC analysis relative to vehicle-treated control; assay type: functional
PC-12 [22] = test: Inhibition of D-aspartate biosynthesis in rat PC12 cells assessed as reduction of total D-aspartate content at 0.2 uM measured at 1 to 6 hrs by O-phthalaldehyde/N-acetyl-L-cysteine derivatization technique-based HPLC analysis relative to vehicle-treated control; assay type: functional, cell-based
PC-12 [23] = test: Inhibition of D-aspartate biosynthesis in rat PC12 cells assessed as effect on intracellular D-aspartate content at 0.2 uM incubated up to 16 hrs by O-phthalaldehyde/N-acetyl-L-cysteine derivatization technique-based HPLC analysis relative to vehicle-treated control; assay type: functional, cell-based

In the case of `COC1=C2C[C@@H](C)C[C@H](OC)[C@H](O)[C@@H](C)/C=C(\C)[C@H](OC(N)=O)[C@@H](OC)/C=C\C=C(/C)C(=O)NC(=CC1=O)C2=O` [GELDANAMYCIN], the inhibition (PC-12 [1]) is reported as “Active”, the inhibition (PC-12 [2]) is reported as “Active” and the Activity (PC-12 [3]) is reported as “inactive”. The Activity (PC-12 [4]) was “inactive”, the Activity (PC-12 [5]) was “inactive” and the inhibition (PC-12 [6]) was “inactive”. For the same compound, the inhibition (PC-12 [7]) was “Dose-dependent effect”, the inhibition (PC-12 [8]) was “inactive” and the inhibition (PC-12 [9]) was “Active”. The Activity (HEK293) was 15.8% and the inhibition (PC-12 [10]) was “Active”.
`CC(C)[C@H]1CC[C@@]2(CO2)[C@H]2C(=O)OCC(C(=O)O)=C[C@H]12` was tested, and the Activity (PC-12 [11]) was “inactive”, the Activity (PC-12 [12]) was “inactive” and the inhibition (PC-12 [13]) was “inactive”. For the same compound, the inhibition (PC-12 [14]) was “inactive” and the Activity (HEK293) was 0.291%.
`CO[C@@H](C(=O)[C@H](O)[C@@H](C)O)[C@H]1Cc2cc3cc(O[C@H]4C[C@@H](O[C@@H]5C[C@H](O)[C@@H](O)[C@H](C)O5)[C@H](O)[C@@H](C)O4)c(C)c(O)c3c(O)c2C(=O)[C@@H]1O[C@H]1C[C@@H](O[C@@H]2C[C@H](O[C@H]3C[C@](C)(O)[C@H](O)[C@@H](C)O3)[C@@H](O)[C@H](C)O2)[C@H](O)[C@@H](C)O1` was tested, and the Activity (PC-12 [15]) was “inactive”, the inhibition (PC-12 [16]) was “Dose-dependent effect” and the Activity (PC-12 [17]) was “inactive”. The inhibition (PC-12 [18]) was “Dose-dependent effect”, the Activity (PC-12 [19]) was “inactive” and the inhibition (PC-12 [20]) was “Active”. The inhibition (PC-12 [21]) was “Active”, the inhibition (PC-12 [22]) was “inactive” and the Activity (HEK293) was 9.33%. For the same compound, the inhibition (PC-12 [23]) was “inactive”.
